Assay results as given in PMC4042160, “In silico, in vitro and cellular analysis with a kinome-wide inhibitor panel correlates cellular LRRK2 dephosphorylation to inhibitor activity on LRRK2” (Frontiers in Molecular Neuroscience, 2014).
Like-named read-outs stand apart in the source and are kept apart here.

Experiments:
[1] = biological target: T1, full length LRRK2 protein (Homo sapiens, UniProt Q5S007); test: In vitro LRRKtide kinase assay with full length recombinant LRRK2, dose-response (IC50/pIC50); format: biochemical; conditions: for IC50: read-out: IC50 in vitro (lrrktide)
T1 construct: compounds were tested in triplicate with full length LRRK2 protein; made in house
T1 sequence (Q5S007 whole entry): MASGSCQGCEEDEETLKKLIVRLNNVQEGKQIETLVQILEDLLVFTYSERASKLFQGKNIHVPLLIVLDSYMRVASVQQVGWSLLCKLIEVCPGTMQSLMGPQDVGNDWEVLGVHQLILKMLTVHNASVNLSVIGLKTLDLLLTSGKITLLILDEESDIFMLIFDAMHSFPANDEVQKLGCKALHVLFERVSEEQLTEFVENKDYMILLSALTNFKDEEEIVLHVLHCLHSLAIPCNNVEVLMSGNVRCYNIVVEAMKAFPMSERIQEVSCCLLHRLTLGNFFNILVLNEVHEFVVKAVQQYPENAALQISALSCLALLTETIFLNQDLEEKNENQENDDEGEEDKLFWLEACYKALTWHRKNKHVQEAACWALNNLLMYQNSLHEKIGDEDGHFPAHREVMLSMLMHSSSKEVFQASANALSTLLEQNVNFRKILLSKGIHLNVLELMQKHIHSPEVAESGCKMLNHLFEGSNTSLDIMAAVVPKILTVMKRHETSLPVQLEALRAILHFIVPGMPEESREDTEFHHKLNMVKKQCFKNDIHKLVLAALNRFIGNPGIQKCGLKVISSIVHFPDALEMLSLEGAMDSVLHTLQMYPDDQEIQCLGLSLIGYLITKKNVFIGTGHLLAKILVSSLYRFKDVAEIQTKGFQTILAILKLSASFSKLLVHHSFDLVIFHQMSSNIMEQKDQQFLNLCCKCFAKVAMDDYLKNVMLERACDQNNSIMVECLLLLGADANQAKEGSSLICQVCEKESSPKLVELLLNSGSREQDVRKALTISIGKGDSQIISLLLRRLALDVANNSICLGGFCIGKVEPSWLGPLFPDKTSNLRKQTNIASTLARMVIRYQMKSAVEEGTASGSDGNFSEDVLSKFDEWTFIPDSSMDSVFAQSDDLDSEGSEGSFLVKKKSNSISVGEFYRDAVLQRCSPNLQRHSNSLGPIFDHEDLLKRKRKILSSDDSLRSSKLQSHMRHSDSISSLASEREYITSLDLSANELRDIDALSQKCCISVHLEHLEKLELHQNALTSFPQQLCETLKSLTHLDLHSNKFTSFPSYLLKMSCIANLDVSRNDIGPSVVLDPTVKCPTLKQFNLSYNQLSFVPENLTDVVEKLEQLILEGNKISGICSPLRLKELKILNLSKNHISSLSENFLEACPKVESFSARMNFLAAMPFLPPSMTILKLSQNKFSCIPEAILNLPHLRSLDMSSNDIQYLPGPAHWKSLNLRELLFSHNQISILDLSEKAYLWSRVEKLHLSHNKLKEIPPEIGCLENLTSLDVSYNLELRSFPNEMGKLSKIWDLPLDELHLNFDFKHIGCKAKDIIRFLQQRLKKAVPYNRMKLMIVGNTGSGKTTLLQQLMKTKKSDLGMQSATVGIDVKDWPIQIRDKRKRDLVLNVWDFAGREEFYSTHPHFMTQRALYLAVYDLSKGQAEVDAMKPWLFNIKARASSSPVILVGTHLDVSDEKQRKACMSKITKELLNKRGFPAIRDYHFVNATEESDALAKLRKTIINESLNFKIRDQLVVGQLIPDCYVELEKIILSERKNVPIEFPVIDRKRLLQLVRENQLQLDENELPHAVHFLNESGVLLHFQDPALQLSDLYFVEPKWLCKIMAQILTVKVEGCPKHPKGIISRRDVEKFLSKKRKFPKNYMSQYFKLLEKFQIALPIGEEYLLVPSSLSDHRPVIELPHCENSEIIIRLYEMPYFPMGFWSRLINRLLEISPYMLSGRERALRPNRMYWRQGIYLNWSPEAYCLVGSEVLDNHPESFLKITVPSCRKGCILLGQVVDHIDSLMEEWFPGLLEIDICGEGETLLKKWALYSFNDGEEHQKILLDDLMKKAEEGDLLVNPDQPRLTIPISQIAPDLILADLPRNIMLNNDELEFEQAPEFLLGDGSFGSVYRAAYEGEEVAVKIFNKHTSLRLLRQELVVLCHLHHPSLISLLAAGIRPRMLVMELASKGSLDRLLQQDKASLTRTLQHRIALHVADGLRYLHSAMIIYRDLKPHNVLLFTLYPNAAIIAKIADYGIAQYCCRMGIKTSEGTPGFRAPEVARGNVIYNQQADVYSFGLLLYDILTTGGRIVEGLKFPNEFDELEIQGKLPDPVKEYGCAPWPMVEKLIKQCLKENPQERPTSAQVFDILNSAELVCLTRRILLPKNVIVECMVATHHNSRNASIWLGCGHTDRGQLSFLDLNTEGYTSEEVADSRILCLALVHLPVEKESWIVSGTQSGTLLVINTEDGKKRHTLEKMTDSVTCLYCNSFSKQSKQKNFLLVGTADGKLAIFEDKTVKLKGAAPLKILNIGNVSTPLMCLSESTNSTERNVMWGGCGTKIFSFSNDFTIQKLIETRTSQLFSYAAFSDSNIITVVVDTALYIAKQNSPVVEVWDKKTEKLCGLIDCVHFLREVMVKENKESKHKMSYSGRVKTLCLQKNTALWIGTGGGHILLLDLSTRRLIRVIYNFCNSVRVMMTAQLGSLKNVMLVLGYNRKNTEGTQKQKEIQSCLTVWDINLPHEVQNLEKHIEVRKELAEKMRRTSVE

LRRK2 phospho-Ser935 = biological target: T2, LRRK2 phospho-Ser935 (Homo sapiens, UniProt Q5S007); test: Cellular LRRK2 phosphoserine 935 dephosphorylation spotblot assay in SH-SY5Y cells stably expressing 3xFlag-LRRK2; format: cell-based; conditions: for Phosphorylation level relative to solvent (%) (cellular pS935 assay): @ 5 μM for 2 h, SH-SY5Y stably expressing LRRK2, pS935/total LRRK2; for dephosphorylation of LRRK2 (Ser935): 5 μM, 2 h, SH-SY5Y
T2 construct: expressed in transfected cells
T2 sequence (Q5S007 whole entry): as above

[2] = biological target: T3, GST-tagged truncated LRRK2 containing residues 970 to 2527 (Homo sapiens, UniProt Q5S007); test: In vitro LRRKtide peptide-substrate kinase assay, single dose testing (10 μM); format: biochemical; conditions: for % LRRKtide phosphorylation relative to solvent: LRRKtide assay @ 10 μM inhibitor, GST-LRRK2 970-2527, 10 μM ATP, mean, N = 3, solvent control = 100%; for activity on LRRK2 kinase activity in vitro (in words): no activity at 10 μM
T3 construct: GST-tagged truncated LRRK2 containing residues 970 to 2527 (Life Technologies); purchased Life Technologies
T3 sequence (Q5S007 970-2527): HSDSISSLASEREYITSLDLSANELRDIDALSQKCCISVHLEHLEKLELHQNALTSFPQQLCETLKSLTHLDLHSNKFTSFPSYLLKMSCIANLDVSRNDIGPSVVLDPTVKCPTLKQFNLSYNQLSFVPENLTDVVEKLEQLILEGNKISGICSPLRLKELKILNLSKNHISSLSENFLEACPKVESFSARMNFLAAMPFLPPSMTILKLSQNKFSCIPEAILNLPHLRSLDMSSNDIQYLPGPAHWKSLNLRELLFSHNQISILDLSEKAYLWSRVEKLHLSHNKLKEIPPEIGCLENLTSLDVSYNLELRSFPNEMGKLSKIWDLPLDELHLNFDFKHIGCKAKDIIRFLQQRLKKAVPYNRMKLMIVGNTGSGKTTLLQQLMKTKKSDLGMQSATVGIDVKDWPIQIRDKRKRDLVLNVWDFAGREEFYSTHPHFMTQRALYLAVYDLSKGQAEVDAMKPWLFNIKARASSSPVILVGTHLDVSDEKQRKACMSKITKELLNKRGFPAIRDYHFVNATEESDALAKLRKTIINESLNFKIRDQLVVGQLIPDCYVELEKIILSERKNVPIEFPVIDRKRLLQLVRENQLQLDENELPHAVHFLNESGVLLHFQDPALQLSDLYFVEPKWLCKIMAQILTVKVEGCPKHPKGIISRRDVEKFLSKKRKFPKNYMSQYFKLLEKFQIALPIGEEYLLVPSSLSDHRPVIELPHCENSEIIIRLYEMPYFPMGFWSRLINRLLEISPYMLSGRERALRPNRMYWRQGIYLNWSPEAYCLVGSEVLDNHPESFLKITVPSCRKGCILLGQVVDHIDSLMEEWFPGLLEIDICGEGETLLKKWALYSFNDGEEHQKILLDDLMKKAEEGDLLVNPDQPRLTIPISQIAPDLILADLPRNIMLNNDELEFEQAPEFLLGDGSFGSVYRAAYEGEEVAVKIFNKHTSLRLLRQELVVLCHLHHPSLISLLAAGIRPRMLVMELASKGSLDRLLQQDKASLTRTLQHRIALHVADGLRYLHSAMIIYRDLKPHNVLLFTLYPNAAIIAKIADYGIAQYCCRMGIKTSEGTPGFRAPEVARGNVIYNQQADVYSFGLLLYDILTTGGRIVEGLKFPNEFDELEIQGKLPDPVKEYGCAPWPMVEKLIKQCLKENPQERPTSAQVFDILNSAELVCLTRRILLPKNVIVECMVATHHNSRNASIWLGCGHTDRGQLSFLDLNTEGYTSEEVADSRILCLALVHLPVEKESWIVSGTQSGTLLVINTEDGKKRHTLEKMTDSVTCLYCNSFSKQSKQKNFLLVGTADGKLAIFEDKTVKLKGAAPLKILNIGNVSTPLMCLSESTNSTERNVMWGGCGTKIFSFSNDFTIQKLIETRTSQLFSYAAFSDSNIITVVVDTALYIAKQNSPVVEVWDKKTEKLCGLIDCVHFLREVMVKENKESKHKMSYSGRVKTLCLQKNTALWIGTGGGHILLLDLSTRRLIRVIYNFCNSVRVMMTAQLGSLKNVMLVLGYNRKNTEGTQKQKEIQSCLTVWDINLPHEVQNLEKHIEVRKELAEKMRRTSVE

[3] = LRRKtide phosphorylation, dose-response

Row | Compound | % LRRKtide phosphorylation relative to solvent [2] [%] | Phosphorylation level relative to solvent (%) (cellular pS935 assay) (LRRK2 phospho-Ser935) | further results
1 | PKR inhibitor. negative control |  |  | pIC50 in vitro (lrrktide) [1, 3]: 6.53; IC50 [1, 3]: 297 nM; Cellular pS935 (% @ 5 μM) (LRRK2 phospho-Ser935; pS935 level as % of control, 5 μM for 2 h, SH-SY5Y cells with stable expression of LRRK2): 72.69%
2 | COc1cc(C(=O)N2CCC(N3CCN(C)CC3)CC2)ccc1Nc1ncc2c(n1)N(C)c1ccccc1C(=O)N2C [LRRK2 IN1] |  |  | pIC50 in vitro (lrrktide) [1]: 8.45; IC50 [1]: 3.54 nM; Cellular pS935 (% @ 5 μM) (LRRK2 phospho-Ser935): 9.32%; pIC50 cellular (pS935) (LRRK2 phospho-Ser935): 6.55; IC50 (LRRK2 phospho-Ser935; read-out: IC50 cellular (pS935)): 280 nM
3 | O=C(Nc1cccc(Nc2cc(Nc3cccc(C(F)(F)F)c3)ncn2)c1)C1CC1 [EGFR inhibitor] | 64.37 | 57.76 | 
4 | CC(=O)c1ccc(N2CCOCC2)cc1O [DNA-PK inhibitor III] | 68.41 | 71.78 | 
5 | CC#CC(=O)Nc1cc2c(Nc3ccc(F)c(Cl)c3)ncnc2cn1 [EGFR/ErbB-2/ErbB-4 inhibitor] | 81.86 | 69.18 | 
6 | COc1ccc(-c2cnc3c(-c4ccsc4)cnn3c2)cc1 [VEGF receptor 2 kinase inhibitor IV] | 77.83 | 48.48 | 
7 | O=c1cc(-c2cccc3c2Sc2ccccc2S3)oc(N2CCOCC2)c1 [ATM kinase inhibitor] | 86.09 | 103.28 | 
8 | COc1ccc(C(=O)Nc2sc3c(c2C(N)=O)CCCC3)cc1OC [Flt-3 inhibitor] | 38.91 | 63.54 | 
9 | CO[C@H]1[C@@H](OC)C[C@H](C)[C@@H](OC)C2=CC(=O)C=C(NC(=O)/C(C)=C/C=C\[C@H](OC)[C@@H](OC(N)=O)/C(C)=C/[C@@H]1C)C2=O [Herbimycin A, Streptomyces sp., Herbimycin A] | 103.97 | 92.79 | 
10 | GTP-14564 | 18.03 | 71.63 | 
11 | Cc1nc2cc3nc(-c4cccs4)cnc3cc2n1C [AGL 2043] | 29.68 | 90.06 | 
12 | Fc1ccc(-c2nc3n(c2-c2ccncc2)CCS3)cc1 [SKF-86002] | 94.81 | 121.09 | 
13 | O=c1c2ccccc2[nH]c(=S)n1CCN1CCC(=C(c2ccc(F)cc2)c2ccc(F)cc2)CC1 [Diacylglycerol kinase inhibitor II] | 119.82 | 84.54 | 
14 | c1cc(-c2cnn3cc(-c4ccc(OCCN5CCCCC5)cc4)cnc23)ccn1 [AMPK inhibitor, compound C] | 24.40 | 112.70 | 
15 | c1ccc(-c2[nH]ncc2-c2ccnc3ccccc23)nc1 [TGF-b RI kinase inhibitor] | 47.94 | 71.73 | 
16 | cFMS receptor tyrosine kinase inhibitor | 110.22 | 60.62 | 
17 | O=c1cc(N2CCOCC2)oc2c1ccc1ccccc12 [DNA-PK inhibitor II] | 86.06 | 81.93 | 
18 | Oc1cccc(-c2nc(N3CCOCC3)c3oc4ncccc4c3n2)c1 [PI-103] | 88.58 | 71.34 | 
19 | CCCCc1c(-c2ccc(OC)cc2)[nH]c2nccnc12 [Aloisine, RP106] | 17.45 | 109.11 | 
20 | O=C1NC(=O)/C(=C/c2ccc3nccnc3c2)S1 [PI 3-Kg inhibitor] | 62.51 | 79.50 | 

Row | Compound | % LRRKtide phosphorylation relative to solvent [2] [%] | Phosphorylation level relative to solvent (%) (cellular pS935 assay) (LRRK2 phospho-Ser935) | further results
21 | Cc1nc(-c2ccccc2)c(-c2ccncc2)o1 [SC-68376] | 48.07 | 104.03 | 
22 | O=c1cc(N2CCNCC2)oc2c(-c3ccccc3)cccc12 [LY 303511] | 107.82 | 47.60 | activity on LRRK2 kinase activity in vitro (in words) [2]: inactive; dephosphorylation of LRRK2 (Ser935) (LRRK2 phospho-Ser935): ~ 50%
23 | O=C1Cc2c([nH]c3ccc(Br)cc23)-c2ccccc2N1 [Kenpaullone] | 47.16 | 94.10 | 
24 | CCc1[nH]c(-c2ccc(OC)cc2)nc1-c1ccncc1 [SB 202474] | 47.64 | 112.24 | 
25 | Nc1[nH]nc2nnc(-c3c(-c4ccccc4)nn4ccccc34)cc12 [ERK inhibitor II, FR180204, FR180204] | 14.06 | 65.88 | 
26 | CCCNC(=O)Nc1ccc(Oc2ncnc3cc(OC)c(OC)cc23)cc1Cl [KRN63] | 68.07 | 62.48 | 
27 | CC(C)(C)c1nc2c3cc[nH]c(=O)c3c3cc(F)ccc3c2[nH]1 [JAK inhibitor I] | 3.20 | 47.17 | 
28 | O=C1NC(=O)c2c1c1c3ccccc3[nH]c1c1[nH]c3cc(Br)ccc3c21 [Cdk4 inhibitor] | 6.82 | 49.88 | 
29 | O=C(Nc1nc2ccccc2n1CCN1CCOCC1)c1cccc([N+](=O)[O-])c1 [IRAK-1/4 inhibitor] | 55.78 | 71.83 | 
30 | O=C(c1ccccc1)c1ccc(N2CCOCC2)cc1O [DNA-PK inhibitor V] | 89.01 | 48.36 | activity on LRRK2 kinase activity in vitro (in words) [2]: inactive; dephosphorylation of LRRK2 (Ser935) (LRRK2 phospho-Ser935): ~ 50%
31 | O=C1Nc2ccc(Cl)cc2/C1=C/c1cc(Cl)c(O)c(Cl)c1 [PKR inhibitor, negative control] | 1.07 | 72.69 | 
32 | CCn1cnc2c(Nc3cccc(Cl)c3)nc(N[C@@H]3CCCC[C@@H]3N)nc21 [Cdk1 inhibitor, CGP74514A, CGP74514A] | 3.91 | 83.35 | 
33 | CCN(CC)C(=O)c1ccc(Nc2nc(OCC3CCCCC3)c3[nH]cnc3n2)cc1 [Cdk2 inhibitor IV, NU6140, NU6140] | 0.98 | 34.63 | 
34 | O=C1NC(=O)c2c1c1c3ccccc3[nH]c1n1cncc21 [Isogranulatimide] | 4.64 | 77.38 | 
35 | Nc1ncnc2c1cnn2-c1ccccc1 [PP3] | 68.38 | 84.67 | 
36 | CSc1nc(-c2ccnc(NC(C)c3ccccc3)c2)c(-c2ccc(F)cc2)[nH]1 (stereo not shown) [p38 MAP kinase inhibitor III] | 112.29 | 83.74 | 
37 | O=C1NC(=O)C(c2cn(CCCn3ccnc3)c3ccccc23)=C1Nc1ccccc1 [PKCb inhibitor] | 3.56 | 86.12 | 
38 | Cn1nc2c3c(cccc31)C(=O)c1ccccc1-2 [JNK inhibitor, negative control] | 17.88 | 107.46 | 
39 | CC(C)(C)n1nc(Cc2cccc3ccccc23)c2c(N)ncnc21 [PP1 analog II, 1NM-PP1, 1NM-PP1] | 44.14 | 68.59 | 
40 | N#Cc1cnc2cnc(NCc3cccnc3)cc2c1Nc1ccc(F)c(Cl)c1 [Tpl2 kinase inhibitor] | 55.04 | 102.54 | 
